Assay results published in patent publication US20140275257A1, “N-ACETYL CYSTEINE COMPOSITIONS IN THE TREATMENT OF SYSTEMIC LUPUS ERYTHEMATOSUS” (Foundation for the State University of New York, priority 2013, published 2014).

Tests used:
FoxP3 = FoxP3 expression in T-cell subsets by flow cytometry; type: in vivo, human
Procedure: Foxp3 expression was measured in permeabilized cells using Alexa-647-conjugated antibody from BioLegend (San Diego, Calif.; cat No 320014). Up to 11 parameters were recorded simultaneously using a Becton Dickinson LSRII flow cytometer equipped with 20 mW solid-state Nd-YAG (emission at 355 nm), 20 mW argon (emission at 488 nm), 10 mW diode pumped solid state yellow-green (emission 561 nm) and 16 mW heliumneon lasers (emission at 634 nm). Each patient's cells were processed and analyzed in parallel with a matched control. […] FIG. 5A: FoxP3 expression in CD4^+/CD25^+ and CD8^+/CD25^+ T cell subsets of lupus and control donors matched for age, gender, and ethnicity by flow cytometry. Red and blue values indicate percentage of FoxP3^+ cells in lupus and control donors, respectively. FIG. 5B: Cumulative analysis of FoxP3 expression in CD25^+ T-cell subsets in lupus subjects and matched controls. p values reflect comparison with two-tailed unpaired t-test. FIG. 5C: Effect of NAC on Foxp3 expression in CD25^+ T cell subsets of lupus patients exposed to all doses considered together. p values reflect comparison with two-tailed paired t-test.

SLE patients = experiment: Fatigue Assessment Scale (FAS) in NAC pilot study; type: in vivo, human; details: for FAS: all NAC doses combined, visit 1 28.5
Text: Fatigue, a nonspecific symptom that is highly prevalent among patients in primary care, is not only an important component of many diseases or disorders, including SLE, but can also play a substantial role in healthy populations. Fatigue is considered the most disabling symptom in a majority of SLE patients. (Krupp, L. B. et al., “A study of fatigue in systemic lupus erythematosus,” J. Rheumatol., 17: 1450-1452 (1990)). The Fatigue Assessment Scale (FAS) is a 10-item unidimensional subjective fatigue scale that measures chronic fatigue. For each statement, one chooses one out of five answer categories varying from “never” to “always: 1=never; 2=sometimes; 3=regularly; 4=often; and 5=always. (Michielsen, H. J. et al., “Psychometric qualities of a brief self-rated fatigue measure: The Fatigue Assessment Scale,” Journal of Psychosomatic Research, 54: 345-352 (2003)).
Fatigue was assessed by using a validated Fatigue Assessment Scale (FAS), a self-questionnaire that provides a subjective measurement of fatigue severity and has shown to have a high degree of internal consistency, validity, and sensitivity to changes in clinical condition, as described in Michielsen, H. J. et al., “Psychometric qualities of a brief self-rated fatigue measure: The Fatigue Assessment Scale,” J. Psychosom. Res., 54(4): 345-352 (2003), the entire content of which is incorporated by reference herein.
Lupus disease activity was measured by SLEDAI and BILAG and fatigue was evaluated by FAC at baseline (visit 1) as well as monthly during a 3-month intervention (visits 2-4) and after a 1-month washout period (visit 5).

mTOR = experiment: CD3/CD28 stimulation-induced mTOR activity in normal PBL pretreated with NAC in vitro; type: cell-based, human; details: pretreatment by NAC in vitro (data not shown)
Text: Δψm is subject to regulation by an oxidation-reduction equilibrium of ROI, pyridine nucleotides (NADH/NAD+NADPH/NADP) and GSH. (Fernandez, D. and Perl, A. “Metabolic control of T cell activation and death in SLE,” Autoimmun. Rev., 8: 184-189 (2009)). Without being bound by theory, it is believed that NAC can modulate mitochondrial hyperpolarization (MHP), directly, via neutralizing ROI or, indirectly, via sparing NADPH and promoting de novo GSH production. […] NAC-induced MHP occurred with a marked increase in NO production, which is required for mitochondrial biogenesis. (Nagy, G. et al., “Nitric Oxide-Dependent Mitochondrial Biogenesis Generates Ca^2+ Signaling Profile of Lupus T Cells,” J. Immunol., 173: 3676-3683 (2004)). In turn, NO production depends on the availability of NADPH. Without being bound by theory, it is believed that increased NO production can result from sparing of NADPH by NAC. (Fernandez, D. and Perl, A. “Metabolic control of T cell activation and death in SLE,” Autoimmun. Rev., 8: 184-189 (2009)). Without being bound by theory, NAC acts by blocking mTOR, which is a sensor of Δψm and oxidative stress in lupus T cells. (Fernandez, D. R. et al., “Activation of mTOR controls the loss of TCRζ □ in lupus T cells through HRES-1/Rab4-regulated lysosomal degradation,” J. Immunol., 182: 2063-2073 (2009)). […]

CC(=O)N[C@@H](CS)C(=O)O [NAC, N-acetyl-L-cysteine]
CD4+/CD25+/FoxP3+ T cells (FoxP3; 4.8 g/day NAC, after 2 months, baseline 3.2±0.6%, p=0.018): 5.2±0.9% | FoxP3 expression in CD25+ DN T cells (FoxP3; after 2-month NAC treatment, baseline 1.29±0.23%, p=0.0160): 2.24±0.38% | percentage of FoxP3+ cells within the CD4+/CD25+ T-cell compartment (FoxP3; all NAC-treated patients, p=0.045): increased | effect on SLE disease activity, FAS (SLE patients; NAC dose 1 (1.2 g/day)): did not influence | effect on FAS (SLE patients; NAC dose 2 (2.4 g/day) and dose 3 (4.8 g/day), after 2 months (p=0.002) and 3 months (p=0.004)): reduced | effect on FAS relative to placebo (mixed model analysis) (SLE patients; NAC dosing group 2, XTMIXED z=−2.08, p=0.038): reduction | FAS (SLE patients; visit 3 (2 months), p=0.0006): 24.1 | FAS (SLE patients; visit 4 (3 months), p=0.005): 23.9 | FAS (SLE patients; visit 5 (after 1 month washout), p=0.034): 24.8 | CD3/CD28 stimulation-induced mTOR activity (mTOR): blocking
